molecular target: T1, B1R receptor of the rat (rB1R) (Rattus norvegicus, UniProt P97583); test: Functional investigation on the bradykinin 1 receptor (B1R), FLIPR Ca2+ assay, rB1R cells; format: cell-based; conditions: CHO-K1, 10 μM test substance; CHO K1 cells with rat B1R; agonist Des-Arg9 bradykinin; % of maximum achievable inhibition; read-out: B1R antagonism, rat [10 μM] % inhibition
T1 construct: expressed in transfected cells; host or cells: CHO K1 cells
T1 sequence (P97583 1-337): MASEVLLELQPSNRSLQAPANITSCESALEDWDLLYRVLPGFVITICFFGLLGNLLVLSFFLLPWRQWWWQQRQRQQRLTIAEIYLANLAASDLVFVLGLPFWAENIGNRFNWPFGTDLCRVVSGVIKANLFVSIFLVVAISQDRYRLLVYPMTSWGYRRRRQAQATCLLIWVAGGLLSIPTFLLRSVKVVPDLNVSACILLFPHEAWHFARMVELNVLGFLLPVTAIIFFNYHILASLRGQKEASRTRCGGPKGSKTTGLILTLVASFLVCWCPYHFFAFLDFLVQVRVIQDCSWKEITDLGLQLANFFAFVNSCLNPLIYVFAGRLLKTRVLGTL
Method in brief: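 Ca2+ influx is measured as peak Fluo-4 fluorescence in a FLIPR protocol with two substance additions, following Lys-Des-[MUT] bradykinin (0.5 nM) or Des-[MUT] bradykinin (100 nM) challenge. Varying antagonist concentrations give % inhibition relative to maximum achievable and an IC50. Determinations in duplicate or triplicate, repeated independently (N>=2).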

Row | inhibition at 10 µM [%] | Compound
1 | 54 | Cc1cc(S(=O)(=O)Nc2ccc3ccn(CCC(=O)NCCC4CCN(c5ccncc5)CC4)c3c2)c(C)cc1Cl [G_CC-71, 3-[6-[[(4-Chloro-2,5-dimethyl-phenyl)sulfonyl]amino]-1H-indol-1-yl]-N-[2-(1-pyridin-4-yl-piperidin-4-yl)-ethyl]-propionamide]
2 | 71 | O=C(CCn1ccc2ccc(N3Cc4cccc(Cl)c4C3=O)cc21)NCCC1CCN(c2ccncc2)CC1 [G_CC-72, 3-[6-(4-Chloro-3-oxo-1,2-dihydro-isoindol-2-yl)-1H-indol-1-yl]-N-[2-(1-pyridin-4-yl-piperidin-4-yl)-ethyl]-propionamide]
3 | 55 | Cc1cc(S(=O)(=O)Nc2cccc3ccn(CCC(=O)NCCN4CCC(c5cccs5)(N(C)C)CC4)c23)c(C)cc1Cl [G_CC-73, 3-[7-[[(4-Chloro-2,5-dimethyl-phenyl)sulfonyl]amino]-1H-indol-1-yl]-N-[2-(4-dimethylamino-4-thiophen-2-yl-piperidin-1-yl)-ethyl]-propionamide]
4 | 51 | Cc1cc(S(=O)(=O)Nc2ccc3ccn(CCC(=O)NCCN4CCC(c5cccs5)(N(C)C)CC4)c3c2)c(C)cc1Cl [G_CC-74, 3-[6-[[(4-Chloro-2,5-dimethyl-phenyl)sulfonyl]amino]-1H-indol-1-yl]-N-[2-(4-dimethylamino-4-thiophen-2-yl-piperidin-1-yl)-ethyl]-propionamide]
5 | 103 | COc1cc(C)c(S(=O)(=O)Nc2ccc3ccn(CCC(=O)N(C)CCN4CCC(c5cccc(F)c5)(N5CCN(C)CC5)CC4)c3c2)c(C)c1 [G_CC-81, N-[2-[4-(3-Fluorophenyl)-4-(4-methyl-piperazin-1-yl)-piperidin-1-yl]-ethyl]-3-[6-[[(4-methoxy-2,6-dimethyl-phenyl)sulfonyl]amino]-1H-indol-1-yl]-N-methyl-propionamide]
6 | 102 | COc1cc(C)c(S(=O)(=O)Nc2cccc3ccn(CC(=O)N4CCC(c5cccc(F)c5)(N5CCN(C)CC5)CC4)c23)c(C)c1 [G_CC-84, N-[1-[2-[4-(3-Fluorophenyl)-4-(4-methyl-piperazin-1-yl)-piperidin-1-yl]-2-oxo-ethyl]-1H-indol-7-yl]-4-methoxy-2,6-dimethyl-benzenesulfonic acid amide]
7 | 98 | COc1cc(C)c(S(=O)(=O)Nc2cccc3ccn(CC(=O)N4CCC(Oc5ccncc5)CC4)c23)c(C)c1 [G_CC-92, 4-Methoxy-2,6-dimethyl-N-[1-[2-oxo-2-(4-pyridin-4-yloxy-piperidin-1-yl)-ethyl]-1H-indol-7-yl]-benzenesulfonic acid amide]
8 | 93 | COc1cc(C)c(S(=O)(=O)Nc2ccc3ccn(CC(=O)N(C)CCN4CCC(c5cccc(F)c5)(N5CCN(C)CC5)CC4)c3c2)c(C)c1 [G_CC-99, N-[2-[4-(3-Fluorophenyl)-4-(4-methyl-piperazin-1-yl)-piperidin-1-yl]-ethyl]-2-[6-[[(4-methoxy-2,6-dimethyl-phenyl)sulfonyl]amino]-1H-indol-1-yl]-N-methyl-acetamide]
9 | 89 | COc1cc(C)c(S(=O)(=O)Nc2cccc3ccn(CC(=O)N(C)CCN4CCC(c5cccc(F)c5)(N5CCN(C)CC5)CC4)c23)c(C)c1 [G_CC-102, N-[2-[4-(3-Fluorophenyl)-4-(4-methyl-piperazin-1-yl)-piperidin-1-yl]-ethyl]-2-[7-[[(4-methoxy-2,6-dimethyl-phenyl)sulfonyl]amino]-1H-indol-1-yl]-N-methyl-acetamide]
10 | 88 | O=C(Cn1ccc2ccc(N3Cc4cccc(Cl)c4C3=O)cc21)NCCC1CCN(c2ccncc2)CC1 [G_CC-103, 2-[6-(4-Chloro-3-oxo-1,2-dihydro-isoindol-2-yl)-1H-indol-1-yl]-N-[2-(1-pyridin-4-yl-piperidin-4-yl)-ethyl]-acetamide]
11 | 86 | O=C(CCn1ccc2cccc(N3Cc4cccc(Cl)c4C3=O)c21)N1CCC2(CC1)CCN(c1ccncc1)CC2 [G_CC-106, 7-Chloro-2-[1-[3-oxo-3-(3-pyridin-4-yl-3,9-diazaspiro[5.5]undecan-9-yl)-propyl]-1H-indol-7-yl]-2,3-dihydro-isoindol-1-one]
12 | 84 | COc1cc(C)c(S(=O)(=O)Nc2ccc3ccn(CC(=O)N4CCC(CNC(=O)c5ccncc5)(N5CCN(C)CC5)CC4)c3c2)c(C)c1 [G_CC-108, N-[[1-[2-[6-[[(4-Methoxy-2,6-dimethyl-phenyl)sulfonyl]amino]-1H-indol-1-yl]-acetyl]-4-(4-methyl-piperazin-1-yl)-piperidin-4-yl]-methyl]-pyridine-4-carboxylic acid amide]
13 | 81 | O=C(Cn1ccc2ccc(N3Cc4cccc(Cl)c4C3=O)cc21)NCC1CCN(c2ccncc2)CC1 [G_CC-111, 2-[6-(4-Chloro-3-oxo-1,2-dihydro-isoindol-2-yl)-1H-indol-1-yl]-N-[(1-pyridin-4-yl-piperidin-4-yl)-methyl]-acetamide]
14 | 78 | CN1CCN(C2(c3cccc(F)c3)CCN(CCN(C)C(=O)Cn3ccc4ccc(N5Cc6cccc(Cl)c6C5=O)cc43)CC2)CC1 [G_CC-113, 2-[6-(4-Chloro-3-oxo-1,2-dihydro-isoindol-2-yl)-1H-indol-1-yl]-N-[2-[4-(3-fluorophenyl)-4-(4-methyl-piperazin-1-yl)-piperidin-1-yl]-ethyl]-N-methyl-acetamide]
15 | 74 | COc1cc(C)c(S(=O)(=O)Nc2ccc3ccn(CCC(=O)N(C)CCCN4CCN(c5ccncc5)CC4)c3c2)c(C)c1 [G_CC-116, 3-[6-[[(4-Methoxy-2,6-dimethyl-phenyl)sulfonyl]amino]-1H-indol-1-yl]-N-methyl-N-[3-(4-pyridin-4-yl-piperazin-1-yl)-propyl]-propionamide]
16 | 72 | CN(CCCN1CCN(c2ccncc2)CC1)C(=O)CCn1ccc2ccc(N3Cc4cccc(Cl)c4C3=O)cc21 [G_CC-119, 3-[6-(4-Chloro-3-oxo-1,2-dihydro-isoindol-2-yl)-1H-indol-1-yl]-N-methyl-N-[3-(4-pyridin-4-yl-piperazin-1-yl)-propyl]-propionamide]
17 | 72 | COc1cc(C)c(S(=O)(=O)Nc2ccc3ccn(CC(=O)N4CCC(CCN5CCCC5)CC4)c3c2)c(C)c1 [G_CC-120, 4-Methoxy-2,6-dimethyl-N-[1-[2-oxo-2-[4-(2-pyrrolidin-1-yl-ethyl)-piperidin-1-yl]-ethyl]-1H-indol-6-yl]-benzenesulfonic acid amide]
18 | 67 | O=C(CCn1ccc2cccc(N3Cc4cccc(Cl)c4C3=O)c21)NCC1CCN(c2ccncc2)CC1 [G_CC-123, 3-[7-(4-Chloro-3-oxo-1,2-dihydro-isoindol-2-yl)-1H-indol-1-yl]-N-[(1-pyridin-4-yl-piperidin-4-yl)-methyl]-propionamide]
19 | 61 | CN1CCN(C2(c3cccc(F)c3)CCN(C(=O)Cn3ccc4ccc(N5Cc6cccc(Cl)c6C5=O)cc43)CC2)CC1 [G_CC-128, 7-Chloro-2-[1-[2-[4-(3-fluorophenyl)-4-(4-methyl-piperazin-1-yl)-piperidin-1-yl]-2-oxo-ethyl]-1H-indol-6-yl]-2,3-dihydro-isoindol-1-one]
20 | 52 | CN(CCCN1CCN(c2ccncc2)CC1)C(=O)Cn1ccc2ccc(N3Cc4cccc(Cl)c4C3=O)cc21 [G_CC-138, 2-[6-(4-Chloro-3-oxo-1,2-dihydro-isoindol-2-yl)-1H-indol-1-yl]-N-methyl-N-[3-(4-pyridin-4-yl-piperazin-1-yl)-propyl]-acetamide]
21 | 50 | COc1cc(C)c(S(=O)(=O)Nc2cccc3ccn(CC(=O)N4CCN(C(=O)c5cccnc5)CC4)c23)c(C)c1 [G_CC-139, 4-Methoxy-2,6-dimethyl-N-[1-[2-oxo-2-[4-(pyridin-3-carbonyl)-piperazin-1-yl]-ethyl]-1H-indol-7-yl]-benzenesulfonic acid amide]

Row | Compound | inhibition at 10 µM [%]
22 | COc1cc(C)c(S(=O)(=O)Nc2cccc3ccn(CC(=O)N(C)CCC4CCC(c5ccccc5)(N(C)C)CC4)c23)c(C)c1 (stereo not shown) [G_CC-77, N-[2-(4-Dimethylamino-4-phenyl-cyclohexyl)-ethyl]-2-[7-[[(4-methoxy-2,6-dimethyl-phenyl)sulfonyl]amino]-1H-indol-1-yl]-N-methyl-acetamide] | 104
23 | COc1cc(C)c(S(=O)(=O)Nc2ccc3ccn(CC(=O)N(C)CCC4CCC(c5ccccc5)(N(C)C)CC4)c3c2)c(C)c1 (stereo not shown) [G_CC-95, N-[2-(4-Dimethylamino-4-phenyl-cyclohexyl)-ethyl]-2-[6-[[(4-methoxy-2,6-dimethyl-phenyl)sulfonyl]amino]-1H-indol-1-yl]-N-methyl-acetamide] | 96
24 | COc1cc(C)c(S(=O)(=O)Nc2ccc3ccn(CCC(=O)N(C)CCC4CCC(c5ccccc5)(N(C)C)CC4)c3c2)c(C)c1 (stereo not shown) [G_CC-117, N-[2-(4-Dimethylamino-4-phenyl-cyclohexyl)-ethyl]-3-[6-[[(4-methoxy-2,6-dimethyl-phenyl)sulfonyl]amino]-1H-indol-1-yl]-N-methyl-propionamide] | 74
25 | CN(CCC1CCC(c2ccccc2)(N(C)C)CC1)C(=O)CCn1ccc2ccc(N3Cc4cccc(Cl)c4C3=O)cc21 (stereo not shown) [G_CC-127, 3-[6-(4-Chloro-3-oxo-1,2-dihydro-isoindol-2-yl)-1H-indol-1-yl]-N-[2-(4-dimethylamino-4-phenyl-cyclohexyl)-ethyl]-N-methyl-propionamide] | 63
